ChEMBL document CHEMBL1909046, “DrugMatrix in vitro pharmacology data”

Legend:
[1] = target: T1, Muscarinic acetylcholine receptor M2 (Homo sapiens, UniProt P08172); format: cell membranes, CHO-K1, Membrane; also: in other assays of this panel Not Active means under 50% inhibition at 10 µM
T1 sequence (P08172 whole entry): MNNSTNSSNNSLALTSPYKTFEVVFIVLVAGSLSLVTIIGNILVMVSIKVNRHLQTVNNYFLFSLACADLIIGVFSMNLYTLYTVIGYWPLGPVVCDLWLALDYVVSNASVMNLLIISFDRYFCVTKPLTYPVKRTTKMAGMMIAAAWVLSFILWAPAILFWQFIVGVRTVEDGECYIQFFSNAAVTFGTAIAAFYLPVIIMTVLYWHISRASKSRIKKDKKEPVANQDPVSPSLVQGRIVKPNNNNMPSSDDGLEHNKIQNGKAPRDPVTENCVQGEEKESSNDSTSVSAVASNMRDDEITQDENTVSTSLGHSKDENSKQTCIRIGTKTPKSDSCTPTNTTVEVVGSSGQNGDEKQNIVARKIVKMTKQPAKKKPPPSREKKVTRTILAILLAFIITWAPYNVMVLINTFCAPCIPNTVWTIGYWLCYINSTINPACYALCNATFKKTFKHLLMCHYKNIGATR

[2] = target: T2, Cysteinyl leukotriene receptor 1 (Homo sapiens, UniProt Q9Y271); format: cell membranes, Membrane; details: cho-k1; also: in other assays of this panel Not Active means under 50% inhibition at 10 µM
T2 sequence (Q9Y271 whole entry): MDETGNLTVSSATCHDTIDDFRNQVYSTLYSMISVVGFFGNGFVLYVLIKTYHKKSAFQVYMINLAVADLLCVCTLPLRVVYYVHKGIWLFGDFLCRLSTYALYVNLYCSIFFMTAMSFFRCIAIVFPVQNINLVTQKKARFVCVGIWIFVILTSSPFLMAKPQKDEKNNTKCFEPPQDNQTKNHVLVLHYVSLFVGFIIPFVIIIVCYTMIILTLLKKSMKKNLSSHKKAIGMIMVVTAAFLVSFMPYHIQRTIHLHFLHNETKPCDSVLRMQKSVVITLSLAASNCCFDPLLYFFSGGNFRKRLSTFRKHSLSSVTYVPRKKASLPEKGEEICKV

[3] = target: 5-hydroxytryptamine receptor 4 (Cavia porcellus, UniProt O70528); format: cell membranes, Dunkin-Hartley, Striatum, Membrane; also: in other assays of this panel Not Active means under 50% inhibition at 10 µM
5-hydroxytryptamine receptor 4, sequence (O70528 whole entry): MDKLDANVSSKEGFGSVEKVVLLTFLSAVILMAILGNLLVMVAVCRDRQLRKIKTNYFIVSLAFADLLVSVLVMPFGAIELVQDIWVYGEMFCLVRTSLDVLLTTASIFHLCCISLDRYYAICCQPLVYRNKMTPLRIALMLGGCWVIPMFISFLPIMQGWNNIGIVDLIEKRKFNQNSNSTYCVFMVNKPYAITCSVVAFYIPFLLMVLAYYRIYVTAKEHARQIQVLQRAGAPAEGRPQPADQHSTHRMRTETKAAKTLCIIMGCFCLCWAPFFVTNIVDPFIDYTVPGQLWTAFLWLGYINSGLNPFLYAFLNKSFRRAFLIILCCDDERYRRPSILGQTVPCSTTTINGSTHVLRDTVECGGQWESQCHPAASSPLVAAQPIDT

[4] = target: Tyrosine-protein kinase Fyn (Homo sapiens, UniProt P06241); assay: biochemical; format: cell-based, Insect cells;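 also: enzymatic inhibition of Fyn kinase activity measured with Poly(Glu:Tyr) as the phosphorylation substrate; in other assays of this panel Not Active means under 50% inhibition at 10 µM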
Tyrosine-protein kinase Fyn, sequence (P06241 whole entry): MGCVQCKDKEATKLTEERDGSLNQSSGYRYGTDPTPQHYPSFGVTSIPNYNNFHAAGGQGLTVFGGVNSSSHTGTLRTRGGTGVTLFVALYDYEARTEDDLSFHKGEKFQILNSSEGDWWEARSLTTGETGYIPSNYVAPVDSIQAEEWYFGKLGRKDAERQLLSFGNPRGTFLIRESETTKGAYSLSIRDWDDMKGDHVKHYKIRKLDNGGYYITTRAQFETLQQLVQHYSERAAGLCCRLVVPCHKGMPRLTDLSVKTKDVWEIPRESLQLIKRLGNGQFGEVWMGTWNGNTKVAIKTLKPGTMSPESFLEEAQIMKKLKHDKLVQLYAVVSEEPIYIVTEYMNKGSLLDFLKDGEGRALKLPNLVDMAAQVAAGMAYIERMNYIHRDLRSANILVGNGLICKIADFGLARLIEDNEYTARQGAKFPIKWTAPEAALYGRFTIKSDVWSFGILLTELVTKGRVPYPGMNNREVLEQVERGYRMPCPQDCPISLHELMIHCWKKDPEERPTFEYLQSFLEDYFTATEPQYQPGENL

[5] = target: Acetylcholinesterase (Homo sapiens, UniProt P22303); assay: DRUGMATRIX: Acetylcholinesterase enzyme inhibition (substrate: acetylthiocholine); format: cell-based, HEK293; details: Not Active = under 50% inhibition at 10 µM
Acetylcholinesterase, sequence (P22303 whole entry): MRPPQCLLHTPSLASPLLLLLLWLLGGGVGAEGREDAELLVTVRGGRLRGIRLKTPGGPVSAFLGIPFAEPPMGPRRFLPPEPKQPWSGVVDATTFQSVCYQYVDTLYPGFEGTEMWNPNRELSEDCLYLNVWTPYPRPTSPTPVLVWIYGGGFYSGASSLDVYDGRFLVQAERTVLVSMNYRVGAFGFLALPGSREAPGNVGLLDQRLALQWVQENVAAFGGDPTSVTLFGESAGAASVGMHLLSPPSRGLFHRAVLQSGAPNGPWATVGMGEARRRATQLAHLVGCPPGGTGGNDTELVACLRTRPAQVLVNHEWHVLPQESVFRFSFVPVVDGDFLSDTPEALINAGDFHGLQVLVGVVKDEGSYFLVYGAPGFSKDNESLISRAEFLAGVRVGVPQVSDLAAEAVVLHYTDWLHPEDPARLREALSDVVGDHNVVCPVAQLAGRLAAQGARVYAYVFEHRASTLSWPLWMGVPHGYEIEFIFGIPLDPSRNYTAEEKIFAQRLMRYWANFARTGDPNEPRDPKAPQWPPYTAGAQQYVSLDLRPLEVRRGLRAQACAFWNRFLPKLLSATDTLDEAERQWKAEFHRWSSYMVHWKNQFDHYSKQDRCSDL

Clc1ccc(COC(Cn2ccnc2)c2ccc(Cl)cc2Cl)c(Cl)c1 (configuration not stated) [MICONAZOLE]
1.54 µM: Ki ([1]; read-out: Ki)
4.34 µM: IC50 ([1]; read-out: IC50)
4.16 µM: IC50 ([4]; read-out: IC50)
18.7 µM: IC50 ([5]; read-out: IC50)
Not Active: IC50 [2] | IC50 [3]

CC1CCC(NC(=O)N(CCCl)N=O)CC1 (configuration not stated) [SEMUSTINE]
Not Active: IC50 ([1]; cho-k1) | IC50 [2] | IC50 [3] | IC50 ([4]; insect cells) | IC50 ([5]; hek293)

O=C1C[C@@H]2OCC=C3CN4CC[C@]56c7ccccc7N1[C@H]5[C@H]2[C@H]3C[C@H]46 [STRYCHNINE]
Not Active: IC50 ([1]; cho-k1) | IC50 [2] | IC50 [3] | IC50 ([4]; insect cells) | IC50 ([5]; hek293)

C[S+]([O-])c1ccc(-c2nc(-c3ccncc3)c(-c3ccc(F)cc3)[nH]2)cc1 (configuration not stated) [SB-203580]
1.76 µM: Ki ([3]; read-out: Ki)
10.6 µM: IC50 ([3]; read-out: IC50)
Not Active: IC50 ([1]; cho-k1) | IC50 [2] | IC50 ([5]; hek293)

CC(=N)S [THIOACETAMIDE]
Not Active: IC50 ([1]; cho-k1) | IC50 [2] | IC50 [3] | IC50 ([4]; insect cells) | IC50 ([5]; hek293)

COC(=O)[C@H]1[C@H]2C[C@@H]3c4[nH]c5cc(OC)ccc5c4CCN3C[C@H]2C[C@@H](OC(=O)c2cc(OC)c(OC)c(OC)c2)[C@@H]1OC [RESERPINE]
Not Active: IC50 ([1]; cho-k1) | IC50 [2] | IC50 [3] | IC50 ([4]; insect cells) | IC50 ([5]; hek293)

O=c1[nH]c(=O)n(C2CCCO2)cc1F (configuration not stated) [TEGAFUR]
Not Active: IC50 ([1]; cho-k1) | IC50 [2] | IC50 [3] | IC50 ([4]; insect cells) | IC50 ([5]; hek293)

C[N+](C)(C)CCOC(=O)CCC(=O)OCC[N+](C)(C)C.[Cl-].[Cl-] [SUCCINYLCHOLINE CHLORIDE]
Not Active: IC50 ([1]; cho-k1) | IC50 [2] | IC50 [3] | IC50 ([4]; insect cells) | IC50 ([5]; hek293)

CCCCC(=O)N(Cc1ccc(-c2ccccc2-c2nnn[nH]2)cc1)[C@H](C(=O)O)C(C)C
Not Active: IC50 ([1]; cho-k1) | IC50 [2] | IC50 [3] | IC50 ([4]; insect cells) | IC50 ([5]; hek293)

CN1CCN(C2=Nc3cc(Cl)ccc3Nc3ccccc32)CC1 [CLOZAPINE]
Not Active: IC50 [2] | IC50 [3] | IC50 ([4]; insect cells) | IC50 ([5]; hek293)

Oc1ccc2c3c1O[C@H]1[C@@H](O)CC[C@@]4(O)[C@@H](C2)N(CC2CCC2)CC[C@]314 [NALBUPHINE]
Not Active: IC50 ([1]; cho-k1) | IC50 [2] | IC50 [3] | IC50 ([4]; insect cells) | IC50 ([5]; hek293)

CN(C)C(=O)C(CCN1CCC(O)(c2ccc(Cl)cc2)CC1)(c1ccccc1)c1ccccc1 [LOPERAMIDE]
Not Active: IC50 ([1]; cho-k1) | IC50 [2] | IC50 [3] | IC50 ([4]; insect cells) | IC50 ([5]; hek293)

O=C(O)c1ccccc1O [SALICYLIC ACID]
Not Active: IC50 ([1]; cho-k1) | IC50 [2] | IC50 [3] | IC50 ([4]; insect cells) | IC50 ([5]; hek293)

Nc1ccc(S(=O)(=O)NC(=O)c2ccccc2)cc1 [SULFABENZAMIDE]
Not Active: IC50 ([1]; cho-k1) | IC50 [2] | IC50 [3] | IC50 ([4]; insect cells) | IC50 ([5]; hek293)

C[C@@](Cc1ccc(O)c(O)c1)(NN)C(=O)O.O [CARBIDOPA]
Not Active: IC50 ([1]; cho-k1) | IC50 [2] | IC50 [3] | IC50 ([5]; hek293)
3.73 µM: IC50 ([4]; read-out: IC50)

CCCCCCCCNC(C)C(O)c1ccc(SC(C)C)cc1 (configuration not stated) [SULOCTIDIL]
Not Active: IC50 ([1]; cho-k1) | IC50 [2] | IC50 [3] | IC50 ([5]; hek293)
0.722 µM: IC50 ([4]; read-out: IC50)

CN1CCN(CCCN2c3ccccc3Sc3ccc(C(F)(F)F)cc32)CC1 [TRIFLUOPERAZINE]
Not Active: IC50 ([1]; cho-k1) | IC50 [2] | IC50 [3] | IC50 ([4]; insect cells) | IC50 ([5]; hek293)

C[C@]12C=CC(=O)C=C1CC[C@@H]1[C@@H]2C(=O)C[C@@]2(C)[C@H]1CC[C@]2(O)C(=O)CO [PREDNISONE]
Not Active: IC50 ([1]; cho-k1) | IC50 [2] | IC50 [3] | IC50 ([4]; insect cells) | IC50 ([5]; hek293)

OCCOCCN1CCN(C2=Nc3ccccc3Sc3ccccc32)CC1 [QUETIAPINE]
Not Active: IC50 [2] | IC50 [3] | IC50 ([4]; insect cells) | IC50 ([5]; hek293)

CC(C)NC[C@H](O)COc1cccc2ccccc12 [LEVOPROPRANOLOL]
Not Active: IC50 ([1]; cho-k1) | IC50 [2] | IC50 [3] | IC50 ([4]; insect cells) | IC50 ([5]; hek293)

O=C(O)CCCCC1CCSS1 (stereo not drawn) [LIPOIC ACID, ALPHA]
Not Active: IC50 ([1]; cho-k1) | IC50 [2] | IC50 [3] | IC50 ([4]; insect cells) | IC50 ([5]; hek293)

CC(C)NC[C@@H](O)COc1cccc2ccccc12 [DEXPROPRANOLOL]
Not Active: IC50 ([1]; cho-k1) | IC50 [2] | IC50 [3] | IC50 ([4]; insect cells) | IC50 ([5]; hek293)

Cc1ccc(C(=O)c2ccc(CC(=O)O)n2C)cc1 [TOLMETIN]
Not Active: IC50 ([1]; cho-k1) | IC50 [2] | IC50 [3] | IC50 ([4]; insect cells) | IC50 ([5]; hek293)

CC(=O)OCC(COC(C)=O)OC(C)=O [TRIACETIN]
Not Active: IC50 ([1]; cho-k1) | IC50 [2] | IC50 [3] | IC50 ([4]; insect cells) | IC50 ([5]; hek293)

TRANSPLATIN
Not Active: IC50 ([1]; cho-k1) | Ki ([1]; cho-k1) | IC50 [2] | Ki [2] | IC50 [3] | Ki [3] | IC50 ([5]; hek293) | Ki ([5]; hek293)
0.565 µM: IC50 ([4]; insect cells, read-out: IC50)

O=C(O)COc1ccc(C(=O)c2cccs2)c(Cl)c1Cl
Not Active: IC50 ([1]; cho-k1) | IC50 [2] | IC50 [3] | IC50 ([4]; insect cells) | IC50 ([5]; hek293)

CN1[C@@H]2CC[C@H]1C[C@@H](OC(c1ccccc1)c1ccccc1)C2 [BENZTROPINE]
Not Active: IC50 [2] | IC50 [3] | IC50 ([4]; insect cells) | IC50 ([5]; hek293)

ZIRCONIUM(IV) CHLORIDE
Not Active: IC50 ([1]; cho-k1) | Ki ([1]; cho-k1) | IC50 [2] | Ki [2] | IC50 [3] | Ki [3] | IC50 ([4]; insect cells) | Ki ([4]; insect cells) | IC50 ([5]; hek293) | Ki ([5]; hek293)
